{
  "source": "ChEMBL document CHEMBL4033763",
  "about": "“Synthesis and Anti-HCV Activity of a Novel 2',3'-Dideoxy-2'-α-fluoro-2'-β-C-methyl Guanosine Phosphoramidate Prodrug” (ACS Med Chem Lett, 2017)",
  "key": {"Hepatitis C virus [1]": {"tested_on": "Hepatitis C virus", "experiment": "Antiviral activity against HCV 1b replicon infected in human HuH7 cells expressing HIV LTR promoter driven luciferase reporter gene assessed as reduction in viral RNA replication incubated for 48 hrs by lucifrease reporter gene assay", "assay_type": "functional, cell-based, Hepacivirus hominis", "conditions": "genotype 1b, Huh-7, 48 h"}, "[2]": {"experiment": "Cytotoxicity against human HuH7 cells expressing HIV LTR promoter driven luciferase reporter gene in presence of 10% fetal bovine serum by lucifrease reporter gene assay", "assay_type": "cell-based, Huh-7"}, "Hepatitis C virus [3]": {"tested_on": "Hepatitis C virus", "experiment": "Antiviral activity against NS5B S282T mutant expressing HCV 1b replicon infected in human HuH7 cells expressing HIV LTR promoter driven luciferase reporter gene assessed as reduction in viral RNA replication incubated for 48 hrs by lucifrease reporter gene assay", "assay_type": "functional, cell-based, Hepacivirus hominis", "conditions": "genotype 1b, Huh-7, 48 h"}, "Hepatitis C virus [4]": {"tested_on": "Hepatitis C virus", "experiment": "Antiviral activity against HCV 1a replicon infected in human HuH7 cells expressing HIV LTR promoter driven luciferase reporter gene assessed as reduction in viral RNA replication incubated for 48 hrs by lucifrease reporter gene assay", "assay_type": "functional, cell-based, Hepacivirus hominis", "conditions": "subtype 1a, Huh-7, 48 h"}, "Hepatitis C virus [5]": {"tested_on": "Hepatitis C virus", "experiment": "Antiviral activity against HCV 2a replicon infected in human HuH7 cells expressing HIV LTR promoter driven luciferase reporter gene assessed as reduction in viral RNA replication incubated for 48 hrs by lucifrease reporter gene assay", "assay_type": "functional, cell-based, Hepacivirus hominis", "conditions": "genotype 2a, Huh-7, 48 h"}},
  "data": [
    {"smiles": "COc1nc(N)nc2c1ncn2[C@@H]1O[C@H](CO)C[C@@]1(C)F", "values": [
      {"measurement": "EC50", "setting": "Hepatitis C virus [1]", "result": "> 100000", "unit": "nM"},
      {"measurement": "CC50", "setting": "[2]", "result": "> 100000", "unit": "nM"}
    ]},
    {"smiles": "COc1nc(N)nc2c1ncn2[C@@H]1O[C@H](CO[P@@](=O)(N[C@@H](C)C(=O)OC2CCCC2)Oc2ccccc2)C[C@@]1(C)F", "values": [
      {"measurement": "EC50", "setting": "Hepatitis C virus [1]", "result": 580, "unit": "nM"},
      {"measurement": "EC50", "setting": "Hepatitis C virus [3]", "result": 810, "unit": "nM"},
      {"measurement": "EC50", "setting": "Hepatitis C virus [4]", "result": 1100, "unit": "nM"},
      {"measurement": "CC50", "setting": "[2]", "result": "> 100000", "unit": "nM"},
      {"measurement": "EC50", "setting": "Hepatitis C virus [5]", "result": 390, "unit": "nM"}
    ]}
  ]
}
